Measured values from PubChem BioAssay AID602210 (Sanford-Burnham Center for Chemical Genomics, 2012).
Activity calls are given as the source filed them. How the calls were made is not given here.

Test: H9c2 cardiomyoblast viability modulators under 2-DG – cell-based, ATPlite luminescence, rat, set 2, myocardial damage modulator project, dose response (AID 602210)
Settings: H9c2 rat cardiomyoblasts, 2-deoxyglucose-induced death, 2 h

SMILES: Cc1ccc(-c2nnc(NCc3nc4ccccc4[nH]3)c3ccccc23)cc1S(=O)(=O)N1CCOCC1
- IC50: 11.3 µM (inactive)

SMILES: O=C(C(=O)N(Cc1ccccc1)Cc1ccccc1)c1c(-c2ccccc2)[nH]c2ccccc12
- IC50: 1.88 µM

SMILES: CCOc1ccc(C(C(=O)NC2CCCC2)N(C(=O)c2snc(C(N)=O)c2N)c2cccc(O)c2)cc1 (stereo unspecified)
- IC50: 6.74 µM

SMILES: COC(=O)c1[nH]c2ccccc2c1NC(=O)CNC1CCCCC1
- IC50: 13.5 µM (inactive)

SMILES: COc1cc2nc(C3CCC3)nc(N3CCN(c4ccccn4)CC3)c2cc1OC
- IC50: > 79 µM (inactive)

SMILES: O=C(Nc1cc(S(=O)(=O)N2CCOCC2)ccc1N1CCCCC1)c1cc(-c2ccccn2)nc2ccccc12
- IC50: 14.6 µM (inactive)

SMILES: CCOc1ccc(S(=O)(=O)N(C)CCO)cc1-c1nc2c(C(C)(C)C)nn(C)c2c(=O)[nH]1
- IC50: 33.2 µM (inactive)

SMILES: CC(=O)NCCNc1nc2c(-c3ccccc3)nnn2c2ccccc12
- IC50: 13.2 µM (inactive)

SMILES: Brc1ccc(-c2ccc(/C=N/Nc3nc(N4CCOCC4)nc(N4CCOCC4)n3)o2)cc1
- IC50: 5.7 µM

SMILES: CC12CCC3C(CCC4CC(O)CCC43C)C1CC(O)C2 (stereo unspecified)
- IC50: 10.4 µM (inactive)

SMILES: O=C1NC(Cc2ccc(O)cc2)c2nc3ccc(F)cc3c(=O)n2-c2cc3ccccc3cc21 (stereo unspecified)
- IC50: 11.1 µM (inactive)

SMILES: COC(=O)C1=C(C)N(CCc2ccc(OC)cc2)C(=O)C1
- IC50: 33.5 µM (inactive)

SMILES: COc1ccc(N(CC(=O)N/N=C/c2cccs2)S(=O)(=O)c2ccc(OC)c(OC)c2)cc1
- IC50: 28 µM (inactive)

SMILES: COc1ccc(CN(C)C(=O)C(Cc2ccccc2)NC(=O)c2ccccc2)cc1F (stereo unspecified)
- IC50: 10.5 µM (inactive)

SMILES: COc1ccc(/C=C/C(=O)c2ccccc2O)cc1CN1CCOCC1
- IC50: 25.7 µM (inactive)

SMILES: COc1ccc(-c2csc(NC(=O)CCCc3nc4ccccc4c(=O)[nH]3)n2)cc1OC
- IC50: 23.3 µM (inactive)

SMILES: O=C(Nc1cccnc1)c1sc(Nc2ccccc2)nc1-c1ccccc1
- IC50: > 79 µM (inactive)

SMILES: COc1ccc(OC)c(NC(=O)c2sc3ncnc(N4CCN(c5ccccn5)CC4)c3c2C)c1
- IC50: 12.1 µM (inactive)

SMILES: COc1cc(/C=C/c2nc3ccccc3c(=O)n2-c2ccccc2O)ccc1O
- IC50: 27.5 µM (inactive)

SMILES: O=C(NCCc1ccccc1Cl)c1ccc2nc3ccccc3c(=O)n2c1
- IC50: 28.7 µM (inactive)

SMILES: CCc1nc(N2CCN(C(=O)c3ccco3)CC2)c2oc3ccccc3c2n1
- IC50: 24.7 µM (inactive)

SMILES: CC(C)C1Nc2ccc(C(=O)N3CCN(c4ccccn4)CC3)cc2NC1=O (stereo unspecified)
- IC50: > 79 µM (inactive)

SMILES: O=C(NCC(=O)N(Cc1ccccc1)C(C(=O)NC1CCCCC1)c1ccco1)c1ccco1 (stereo unspecified)
- IC50: 24 µM (inactive)

SMILES: CC(C)c1cc(N2CCN(C(=O)c3ccco3)CC2)n2c(nc3ccccc32)c1C#N
- IC50: 44.7 µM (inactive)

SMILES: COc1cc(Nc2nc3ccccc3n3nnnc23)cc(OC)c1OC
- IC50: 8.82 µM

SMILES: Cc1c(C(=O)NCC2COc3ccccc3O2)oc2ccc(S(=O)(=O)N3CCOCC3)cc12 (stereo unspecified)
- IC50: 5.65 µM

SMILES: O=[N+]([O-])c1ccc(Nc2nc(N/N=C/c3cccc(F)c3)nc(N3CCCC3)n2)cc1
- IC50: 10.2 µM (inactive)

SMILES: CCc1nc2ccc(C(=O)Nc3cc(-c4ccccc4)ccc3OC)cn2c1N(C)Cc1nccs1
- IC50: 14.1 µM (inactive)

SMILES: COc1ccc(-c2cc(C(=O)N(C)Cc3ccc(OC)c(OC)c3OC)c3ccccc3n2)cc1OC
- IC50: 10.2 µM (inactive)

SMILES: COc1ccc(-c2cc(-c3nnc(COC(=O)c4ccncc4)o3)c3ccccc3n2)cc1OC
- IC50: 18.1 µM (inactive)

SMILES: COc1cc(CN2C[C@@H](CO)O[C@@H](n3cnc4c(Nc5ccccc5)ncnc43)C2)cc(OC)c1OC
- IC50: 17.5 µM (inactive)
